Our source for the Ki values is patent publication US20050096327A1, “Novel norepinephrine reuptake inhibitors for the treatment of central nervous system disorders” (priority 2003, published 2005).

Experiment [1] addresses T1, human serotonin transporter (Homo sapiens, UniProt P31645).
T1 construct: host or cells: HEK-293
As to the kind of experiment: hSERT receptor binding ([125I]-RTI-55, membranes of transfected HEK-293 cells). To be noted: 50 pM [125I]-RTI-55, 90 min room temperature; IC50 converted by Cheng-Prusoff. The method, then:
Cell pastes of HEK-293 cells transfected with the human serotonin transporter were supplied by the Pfizer Ann Arbor Protein Expression and Production Group. Pellets were resuspended in 400 to 700 mL of Krebs-HEPES assay buffer (25 mM HEPES, 122 mM NaCl, 3 mM KCl, 1.2 mM MgSO4, 1.3 mM CaCl2, and 11 mM glucose, pH 7.4) with a Polytron homogenizer at Setting 7 for 30 seconds. Aliquots of membranes (˜2.5 mg/mL protein) were stored in liquid nitrogen until used.
Assays were set up in FlashPlates pre-coated with 0.1% PEI in a total volume of 250 μL containing: drug (10^−5M to 10^−12M), cell membranes, and 50 pM [^125I]-RTI-55 (Perkin Elmer, NEX-272; specific activity 2200 Ci/mmol). The reaction was incubated and gently agitated for 90 minutes at room temperature, and terminated by removal of assay volume. Plates were covered, and bound [^125I]-RTI-55 was determined using a Wallac Trilux Beta Plate Counter. Test compounds were run in duplicate, and specific binding was defined as the difference between binding in the presence and absence of 10 μM citalopram.
Excel and GraphPad Prism software were used for data calculation and analysis. IC50 values were converted to Ki values using the Cheng-Prusoff equation. The Ki values for the hSERT are reported below in Table 1.

Experiment [2] deals with T2, human norepinephrine transporter (Homo sapiens, UniProt P23975).
T2 construct: host or cells: HEK-293
As to the kind of experiment: hNET receptor binding ([125I]-RTI-55, membranes of transfected HEK-293 cells). To be noted: 50 pM [125I]-RTI-55, 90 min room temperature; IC50 converted by Cheng-Prusoff. The protocol: Cell pastes of HEK-293 cells transfected with the human norepinephrine transporter were supplied by the Pfizer Ann Arbor Protein Expression and Production group. Pellets were resuspended in 400 to 700 ml of Krebs-HEPES assay buffer (25 mM HEPES, 122 mM NaCl, 3 mM KCl, 1.2 mM MgSO4, 1.3 mM CaCl2, and 11 mM glucose, pH 7.4) with a Polytron homogenizer at setting 7 for 30 sec. Aliquots of membranes (5 mg/ml protein) were stored in liquid nitrogen until used.
The binding assay was set up in Beckman deep-well polypropylene plates with a total volume of 250 μl containing: drug (10^−5M to 10^−12M), cell membranes, and 50 pM [^125I]-RTI-55 (Perkin Elmer, NEX-272; specific activity 2200 Ci/mmol). The reaction was incubated by gentle agitation for 90 min at room temperature and was terminated by filtration through Whatman GF/C filter plates using a Brandel 96-well plate harvester. Scintillation fluid (100 μl) was added to each well, and bound [^125I]-RTI-55 was determined using a Wallac Trilux Beta Plate Counter. Test compounds were run in duplicate, and specific binding was defined as the difference between binding in the presence and absence of 10 μM desipramine.
Excel and GraphPad Prism software were used for data calculation and analysis. IC50 values were converted to Ki values using the Cheng-Prusoff equation. The Ki values for the hNET are reported below in Table 1.

T2 sequence (P23975 whole entry): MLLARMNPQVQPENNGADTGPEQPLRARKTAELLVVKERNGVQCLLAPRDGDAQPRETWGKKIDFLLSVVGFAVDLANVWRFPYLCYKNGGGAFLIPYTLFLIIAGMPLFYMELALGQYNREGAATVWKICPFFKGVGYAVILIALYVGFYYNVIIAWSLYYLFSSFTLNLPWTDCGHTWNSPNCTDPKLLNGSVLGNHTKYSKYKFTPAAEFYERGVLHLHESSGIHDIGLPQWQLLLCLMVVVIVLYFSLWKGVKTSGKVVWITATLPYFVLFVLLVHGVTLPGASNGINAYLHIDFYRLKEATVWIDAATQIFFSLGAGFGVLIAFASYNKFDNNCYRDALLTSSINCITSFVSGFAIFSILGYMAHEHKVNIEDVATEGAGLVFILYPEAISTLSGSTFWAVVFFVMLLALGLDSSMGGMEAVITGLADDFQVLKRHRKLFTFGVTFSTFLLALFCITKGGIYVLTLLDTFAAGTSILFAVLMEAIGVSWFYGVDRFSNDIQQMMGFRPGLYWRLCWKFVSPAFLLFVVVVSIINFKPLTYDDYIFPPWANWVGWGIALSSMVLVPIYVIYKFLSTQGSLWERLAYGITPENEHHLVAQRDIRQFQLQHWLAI
T1 sequence (P31645 whole entry): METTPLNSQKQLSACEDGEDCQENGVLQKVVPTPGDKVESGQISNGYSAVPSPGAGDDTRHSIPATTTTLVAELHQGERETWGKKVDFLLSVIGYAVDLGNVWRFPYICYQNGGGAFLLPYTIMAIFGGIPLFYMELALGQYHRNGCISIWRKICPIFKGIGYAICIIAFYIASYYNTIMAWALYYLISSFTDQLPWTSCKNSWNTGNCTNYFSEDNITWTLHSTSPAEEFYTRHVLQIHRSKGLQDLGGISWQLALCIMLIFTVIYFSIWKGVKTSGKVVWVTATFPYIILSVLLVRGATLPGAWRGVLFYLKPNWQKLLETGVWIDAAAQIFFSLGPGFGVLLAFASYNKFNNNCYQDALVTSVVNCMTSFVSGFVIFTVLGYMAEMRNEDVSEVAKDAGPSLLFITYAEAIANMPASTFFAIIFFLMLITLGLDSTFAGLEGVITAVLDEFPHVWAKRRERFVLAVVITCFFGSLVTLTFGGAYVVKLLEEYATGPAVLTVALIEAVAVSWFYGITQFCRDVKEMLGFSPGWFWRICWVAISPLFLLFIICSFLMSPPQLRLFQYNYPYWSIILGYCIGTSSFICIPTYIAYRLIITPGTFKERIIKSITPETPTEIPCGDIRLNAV

For the compound `COc1ccccc1-c1nc(N2CCNCC2)nc2cc(F)ccc12` [Example 136, 4-(2-Methoxy-phenyl)-7-fluoro-2-piperazin-1-yl-quinazoline], the Ki was determined as 76.5 nM in experiment [1] and 43.1 nM in experiment [2].
For `Fc1cccc2c(-c3ccccc3)nc(N3CCNCC3)nc12` [Example 133, 8-Fluoro-4-phenyl-2-piperazin-1-yl-quinazoline] the same measures were 1590 nM and 22 nM.
On the same counts, the results for `Fc1ccc2c(-c3c(F)cccc3F)nc(N[C@H]3CCNC3)nc2c1` [Example 100, S-[4-(2,6-Difluoro-phenyl)-7-fluoro-quinazolin-2-yl]-pyrrolidin-3-yl-amine] are 649 nM and 29.3 nM.
For the compound `CNC1CCN(c2nc(-c3c(F)cccc3F)c3ccccc3n2)CC1` [Example 151, {1-[4-(2,6-Difluoro-phenyl)-quinazolin-2-yl]-piperidin-4-yl}-methyl-amine], the Ki was 5540 nM in experiment [1] and 384 nM in experiment [2].
On the same counts, the results for `Fc1ccc(-c2nc(N3CCNCC3)c3ccccc3n2)c(F)c1` [Example 161, 2-(2,4-Difluoro-phenyl)-4-piperazin-1-yl-quinazoline] are 382 nM and 3480 nM.
On the same counts, the results for `Cc1cc(F)ccc1-c1nc(N2CCNCC2)nc2cc(F)ccc12` [Example 117, 7-Fluoro-4-(4-fluoro-2-methyl-phenyl)-2-piperazin-1-yl-quinazoline] are 114 nM and 32.9 nM.
For `Cc1cc(F)ccc1-c1nc(N2CCNCC2)nc2cc(Cl)ccc12` [Example 118, 7-Chloro-4-(4-fluoro-2-methyl-phenyl)-2-piperazin-1-yl-quinazoline] the same measures were 49 nM and 67.2 nM.
On to `Fc1ccc2nc(N3CCNCC3)nc(-c3ccccc3)c2c1` [Example 92, 6-Fluoro-4-phenyl-2-piperazin-1-yl-quinazoline], for which the inhibitory constant (Ki) in experiment [1] amounted to 53 nM; in experiment [2], 33.8 nM.
For `COc1cccc(-c2nc(N3CCNCC3)nc3ccccc23)c1` [Example 90, 4-(3-methoxy-phenyl)-2-piperazin-1-yl-quinazoline] the same measures were 152 nM and 14.6 nM.
Regarding `CNC1CCN(c2nc(-c3ccc(F)cc3F)c3ccccc3n2)CC1` [Example 153, {1-[4-(2,4-Difluoro-phenyl)-quinazolin-2-yl]-piperidin-4-yl}-methyl-amine], the Ki in experiment [1] is greater than 10000 nM; in experiment [2] it was 150 nM.
On the same counts, the results for `Fc1cc(F)cc(-c2nc(N3CCNCC3)nc3ccccc23)c1` [Example 126, 4-(3,5-difluoro-phenyl)-2-piperazin-1-yl-quinazoline] are 107 nM and 3.7 nM.
For `N[C@@H]1CCN(c2nc(-c3cccc(F)c3F)c3ccc(F)cc3n2)C1` [Example 110, R-1-[4-(2,3-Difluoro-phenyl)-7-fluoro-quinazolin-2-yl]-pyrrolidin-3-yl-amine] the same measures were 57.1 nM and 13.6 nM.
On the same counts, the results for `N[C@@H]1CCN(c2nc(-c3cccc(F)c3F)c3ccccc3n2)C1` [Example 102, R-1-[4-(2,3-Difluoro-phenyl)-quinazolin-2-yl]-pyrrolidin-3-ylamine] are 155 nM and 11.4 nM.
On to `Fc1ccc2c(-c3c(F)cccc3F)nc(C3CCNCC3)nc2c1` [Example 162, 4-(2,6-Difluoro-phenyl)-7-fluoro-2-piperidin-4-yl-quinazoline], for which the Ki in experiment [1] was 52.8 nM; in experiment [2] it was 11.4 nM.
On the same counts, the results for `Fc1cc2nc(N3CCNCC3)nc(-c3c(F)cccc3F)c2cc1F` [Example 146, 4-(2,6-Difluoro-phenyl)-6,7-difluoro-2-piperazin-1-yl-quinazoline] are 19 nM and 31.5 nM.
For `N[C@@H]1CCN(c2nc(-c3c(F)cccc3F)c3ccccc3n2)C1` [Example 95, R-1-[4-(2,6-Difluoro-phenyl)-quinazolin-2-yl]-pyrrolidin-3-ylamine] the same measures were 322 nM and 76.9 nM.
Regarding `C[C@@H]1CNCCN1c1nc(-c2cccc(F)c2F)c2ccc(F)cc2n1` [Example 130, R-4-(2,3-Difluoro-phenyl)-7-fluoro-2-(2-methyl-piperazin-1-yl)-quinazoline], the Ki was found to be 44.3 nM in experiment [1] and 24.7 nM in experiment [2].
On the same counts, the results for `Fc1cccc(F)c1-c1nc(N2CCNCC2)nc2ccc(Cl)cc12` [Example 131, 4-(2,6-Difluoro-phenyl)-6-chloro-2-piperazin-1-yl-quinazoline] are 4.8 nM and 30 nM.
`Fc1ccc(-c2nc(NCC3CCNC3)nc3ccccc23)c(F)c1` (stereo not drawn) [Example 155, [4-(2,4-Difluoro-phenyl)-quinazolin-2-yl]-pyrrolidin-3-ylmethyl-amine]: the values for the Ki in experiment [1] and in experiment [2] were greater than 10000 nM and 425 nM, respectively.
Regarding “S-4-(2,4-Difluoro-phenyl)-7-fluoro-2-(2-methyl-piperazin-1-yl)-quinazoline [Example 139]”, the Ki in experiment [1] amounted to 24.9 nM; in experiment [2] it was 30.7 nM.
For `Cc1cccc2nc(N3CCNCC3)nc(-c3ccccc3)c12` [Example 145, 5-Methyl-4-phenyl-2-piperazin-1-yl-quinazoline] the same measures were 121 nM and 16.6 nM.
For `Fc1ccc2nc(N3CCNCC3)nc(-c3cccc(F)c3F)c2c1` [Example 121, 4-(2,3-Difluoro-phenyl)-6-fluoro-2-piperazin-1-yl-quinazoline] the same measures were 32.5 nM and 15.7 nM.
Turning to `Fc1ccc2c(-c3ccc(Cl)cc3Cl)nc(N3CCNCC3)nc2c1` [Example 120, 4-(2,4-Dichloro-phenyl)-7-fluoro-2-piperazin-1-yl-quinazoline], the Ki in experiment [1] amounted to 34.1 nM; in experiment [2] it was 95 nM.
For `Clc1cccc(-c2nc(N3CCNCC3)nc3ccccc23)c1` [Example 113, 4-(3-chloro-phenyl)-2-piperazin-1-yl-quinazoline] the same measures were 119 nM and 28.6 nM.
On the same counts, the results for `Fc1cccc(F)c1-c1nc(N[C@H]2CCNC2)nc2ccccc12` [Example 101, S-[4-(2,6-Difluoro-phenyl)-quinazolin-2-yl]-pyrrolidin-3-yl-amine] are 4870 nM and 7.5 nM.
On the same counts, the results for `CNC1CCN(c2nc(-c3cccc(F)c3F)c3ccccc3n2)CC1` [Example 158] are 6030 nM and 207 nM.
In the case of `C[C@H]1CNCCN1c1nc(-c2c(F)cccc2Cl)c2ccccc2n1` [Example 85, S-4-(2-Chloro-6-fluoro-phenyl)-2-(2-methyl-piperazin-1-yl)-quinazoline], the Ki in experiment [1] worked out at 265 nM; in experiment [2], 26.3 nM.
On the same counts, the results for `Fc1ccc2c(-c3nccs3)nc(N3CCNCC3)nc2c1` [Example 135, 7-Fluoro-2-piperazin-1-yl-4-thiazol-2-yl-quinazoline] are 313 nM and 56.8 nM.
For `C[C@@H]1CNCCN1c1nc(-c2ccccc2)c2ccc(F)cc2n1` [Example 105, R-7-Fluoro-2-(2-methyl-piperazin-1-yl)-4-phenyl-quinazoline] the same measures were 65 nM and 16.6 nM.
As for `C[C@@H]1CNCCN1c1nc(-c2cccc(F)c2F)c2ccccc2n1` [Example 87, R-4-(2,3-Difluoro-phenyl)-2-(2-methyl-piperazin-1-yl)-quinazoline], the Ki came to 99.1 nM in experiment [1] and 20 nM in experiment [2].
On the same counts, the results for `C[C@H]1CNCCN1c1nc(-c2ccc(F)cc2F)c2ccccc2n1` [Example 82, S-4-(2,4-Difluoro-phenyl)-2-(2-methyl-piperazin-1-yl)-quinazoline] are 64.1 nM and 19.4 nM.
On the same counts, the results for `CC(C)[C@H]1CNCCN1c1nc(-c2ccc(F)cc2F)c2ccccc2n1` [Example 167, S-4-(2,4-Difluoro-phenyl)-2-(2-isopropyl-piperazin-1-yl)-quinazoline] are 68.8 nM and 66.1 nM.
On the same counts, the results for `CC[C@H]1CNCCN1c1nc(-c2c(F)cccc2F)c2ccccc2n1` [Example 164, S-4-(2,6-Difluoro-phenyl)-2-(2-ethyl-piperazin-1-yl)-quinazoline] are 18 nM and 31.8 nM.

As a reminder, the Ki is a measure of affinity in units of concentration, obtained from inhibition or displacement.
